From patent US11453660B2, “Androgen receptor and glucocorticoid receptor modulators” (ONCOSTELLAE, S.L., priority 2017, dated 2022)

Tests used:
Rat Androgen Receptor = target: T1, Rat Androgen Receptor (Rattus norvegicus, UniProt P15207); experiment: Rat Androgen Receptor Binding (polarscreen AR competitor assay, fluorescence polarization); settings: displacement of Fluormone AL Green, 4 hours at RT, read-out: AR rat-fluorimetric
T1 construct: purchased Life Technologies A15880
T1 sequence (P15207 646-902 limits assumed): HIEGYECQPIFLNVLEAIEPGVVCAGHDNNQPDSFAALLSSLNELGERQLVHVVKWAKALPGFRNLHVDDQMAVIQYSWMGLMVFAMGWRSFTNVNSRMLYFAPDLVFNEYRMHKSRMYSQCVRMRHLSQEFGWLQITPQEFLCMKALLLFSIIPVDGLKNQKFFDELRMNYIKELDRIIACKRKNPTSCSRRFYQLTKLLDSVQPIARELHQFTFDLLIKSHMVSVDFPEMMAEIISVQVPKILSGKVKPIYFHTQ
In short: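 Fluorescence-polarization competition of Fluormone AL Green binding to rat androgen receptor; compounds screened in duplicate at 1 and 10 μM, 4 h at RT, read at λexc 485/λem 535 nm. IC50 from 1:10 dilution series, 10 μM to 0.1 nM, in 1× buffer.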

human androgen receptor = target: T2, human androgen receptor (Homo sapiens, UniProt P10275, T878A); experiment: Human Androgen Receptor Binding (radioligand binding, LnCap prostate cancer cell line); settings: LnCap cells, displacement of [^3H]-methyltrienolone, 2 hours at 37° C.; read-out: AR LNCaP
T2 construct: endogenously expressed human androgen receptor using the LnCap prostate cancer cell line; endogenous in cells; host or cells: LNCaP prostate cancer cell line (whole cells)
T2 sequence (P10275 1-920 T878A): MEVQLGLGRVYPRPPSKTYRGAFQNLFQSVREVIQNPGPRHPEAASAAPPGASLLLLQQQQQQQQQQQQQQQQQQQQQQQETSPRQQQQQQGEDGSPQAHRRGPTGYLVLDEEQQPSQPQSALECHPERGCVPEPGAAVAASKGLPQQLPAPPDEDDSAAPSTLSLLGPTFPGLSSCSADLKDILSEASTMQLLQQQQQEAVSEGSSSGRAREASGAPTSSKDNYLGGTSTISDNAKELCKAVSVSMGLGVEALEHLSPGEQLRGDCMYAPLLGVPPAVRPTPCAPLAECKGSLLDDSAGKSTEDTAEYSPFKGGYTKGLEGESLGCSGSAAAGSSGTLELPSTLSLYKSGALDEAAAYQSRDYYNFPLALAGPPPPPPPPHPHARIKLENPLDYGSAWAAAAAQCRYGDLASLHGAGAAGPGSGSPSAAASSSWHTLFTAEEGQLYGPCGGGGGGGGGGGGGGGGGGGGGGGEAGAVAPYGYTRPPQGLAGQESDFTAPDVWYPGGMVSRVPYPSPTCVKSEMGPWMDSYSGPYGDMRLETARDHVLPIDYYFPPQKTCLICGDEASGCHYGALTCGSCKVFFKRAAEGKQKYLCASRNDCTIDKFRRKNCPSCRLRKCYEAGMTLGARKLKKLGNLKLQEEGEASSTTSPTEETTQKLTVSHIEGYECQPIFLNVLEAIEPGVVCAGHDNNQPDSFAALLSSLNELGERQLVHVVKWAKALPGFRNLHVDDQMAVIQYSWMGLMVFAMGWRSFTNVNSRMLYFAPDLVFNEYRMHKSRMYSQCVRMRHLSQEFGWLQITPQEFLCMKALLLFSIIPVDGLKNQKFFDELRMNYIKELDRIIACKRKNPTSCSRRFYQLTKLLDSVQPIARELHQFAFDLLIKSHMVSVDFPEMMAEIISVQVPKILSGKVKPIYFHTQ
In short: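 Whole-cell displacement of [3H]-methyltrienolone from endogenous AR (T878A) in LnCap cells, in RPMI with 0.1% BSA and triamcinolone acetonide. Compounds 10 μM to 0.1 nM in 1:10 steps, 2 h at 37 °C; cells washed, SDS-lysed, bound radioactivity by scintillation counting for IC50.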

IC50 (Rat Androgen Receptor) [nM]	IC50 (human androgen receptor) [nM]	SMILES
100 to 1000	≥ 1000	CC(=O)C1=C(C)NC(C)=C(C(=O)OCC2CCOCC2)C1c1csc2ccccc12 (stereo not shown) [Example C2, (Tetrahydro-2H-pyran-4-yl)methyl 5-acetyl-4-(benzo[b]thiophen-3-yl)-2,6-dimethyl-1,4-dihydropyridine-3-carboxylate]
< 100	< 100	COC(=O)C1=C(C2CC2)NC(C)=C(C(C)=O)C1c1csc2ncccc12 (stereo not shown) [Example J23, Methyl 5-acetyl-2-cyclopropyl-6-methyl-4-(thieno[2,3-b]pyridin-3-yl)-1,4-dihydropyridine-3-carboxylate]
–	≥ 1000	CC(=O)C1=C(C)NC(C)=C(C(=O)OCc2ccccc2)C1c1csc2ccc(Cl)cc12 (stereo not shown) [Example C42, Benzyl 5-acetyl-4-(5-chlorobenzo[b]thiophen-3-yl)-2,6-dimethyl-1,4-dihydropyridine-3-carboxylate]
–	≥ 1000	CC(=O)C1=C(C)NC(C)=C(C(=O)OCc2cccc(C#N)c2)C1c1csc2ncccc12 (stereo not shown) [Example C72, 3-Cyanobenzyl 5-acetyl-2,6-dimethyl-4-(thieno[2,3-b]pyridin-3-yl)-1,4-dihydropyridine-3-carboxylate]
–	< 100	COC(=O)C1=C(CO)NC(C2CC2)=C(C(=O)OC)C1c1csc2c(C#N)cccc12 (stereo not shown) [Example C118, Dimethyl 4-(7-cyanobenzo[b]thiophen-3-yl)-2-cyclopropyl-6-(hydroxymethyl)-1,4-dihydropyridine-3,5-dicarboxylate]
–	100 to 1000	COC(=O)C1=C(C)NC(N)=C(C(=O)OC2CCCC2)C1c1csc2c(C#N)cccc12 (stereo not shown) [Example D27, 3-Cyclopentyl 5-methyl 2-amino-4-(7-cyanobenzo[b]thiophen-3-yl)-6-methyl-1,4-dihydropyridine-3,5-dicarboxylate]
< 100	< 100	CC(=O)C1=C(C)NC(C)=C(C(=O)OCC2CC2)C1c1csc2ncccc12 (stereo not shown) [Example C24, Cyclopropylmethyl 5-acetyl-2,6-dimethyl-4-(thieno[2,3-b]pyridin-3-yl)-1,4-dihydropyridine-3-carboxylate]
–	≥ 1000	CC(=O)C1=C(C)NC(C)=C(C(=O)OCc2ccc(-c3ccncc3)cc2)C1c1csc2ncccc12 (stereo not shown) [Example L1, 4-(pyridin-4-yl)benzyl 5-acetyl-2,6-dimethyl-4-(thieno[2,3-b]pyridin-3-yl)-1,4 dihydropyridine-3-carboxylate]
100 to 1000	≥ 1000	CC(=O)C1=C(C)NC(C)=C(C(=O)OCc2ccccc2)C1c1csc2ccccc12 (stereo not shown) [Example B6, Benzyl 5-acetyl-4-(benzo[b]thiophen-3-yl)-2,6-dimethyl-1,4-dihydro-pyridine-3-carboxylate]
–	≥ 1000	CC(=O)C1=C(C)NC(C)=C(C(=O)OCc2cccnc2)C1c1csc2ccccc12 (stereo not shown) [Example C48, Pyridin-3-ylmethyl 5-acetyl-4-(benzo[b]thiophen-3-yl)-2,6-dimethyl-1,4-dihydropyridine-3-carboxylate]
–	< 100	COC(=O)C1=C(C2CC2)NC(C)=C(C(C)=O)C1c1csc2c(Br)cccc12 (stereo not shown) [Example J26, Methyl 5-acetyl-4-(7-bromobenzo[b]thiophen-3-yl)-2-cyclopropyl-6-methyl-1,4-dihydropyridine-3-carboxylate]
–	< 100	CC(=O)C1=C(C)NC(C)=C(C(=O)OCc2ccccc2Br)C1c1csc2ncccc12 (stereo not shown) [Example C67, 2-bromobenzyl 5-acetyl-2,6-dimethyl-4-(thieno[2,3-b]pyridin-3-yl)-1,4-dihydropyridine-3-carboxylate]
